Where two headings read alike, the source gives them in different places.
What was measured:
[1] = tested on: chimeric RARγ receptor protein; test: Cationic Liposome Mediated Transfection Assay, RARγ; format: cell-based; settings: Table 1; 50% of maximum CAT activity of all-trans retinoic acid; HeLa cells
Method: (§1) The above-mentioned Cationic Liposome Mediated Transfection Assay assay by which the activity of a test compound as a potential agonist of the RXR and RAR receptor sites is determined, is performed substantially as reported by Feigner P. L. and Holm M. (1989) Focus, 11-2, and is described below first in principle and thereafter in the form of specific instructions how to perform the assay.
(§2) In connection with this assay it is known that retinoic acid receptors arena member of the steroid/thyroid receptor super family and that they contain domains which are interchangeable within individual receptors. Thus, plasmids for chimeric retinoid receptors containing estrogen DNA binding domain and estrogen response element chloramphenicol acetyl-transferase enzyme are constructed and are grown in specific cultured bacteria. These plasmids respectively code for chimeric RARα, RARβ, RARγ, RXRα receptor proteins, and for the chloramphenicol acetyl A transferase (CAT) enzyme protein. The bacteria with these plasmids are obtainable in accordance with the procedure set forth in the article titled "Nuclear Retinoic Acid Receptors: Cloning, Analysis, and Function", M. Pfahl et al , Methods in Enzymology 189, p 256-270 (1990) which is incorporated herein by reference. The detailed procedure how to isolate the DNA plasmids from the respective bacteria is also set forth below in detail, in the form of specific instructions under the title "Supercoiled Plasmid Isolation".
(§3) Thus, in accordance with the test procedure, DNA plasmid which codes for one of the chimeric RARα, RARβ, RARγ, or RXRα receptor proteins is transfected into cultures of HeLa cells. […] As is known and will be readily understood by those skilled in the art, especially in view of the above-cited M. Pfahl et al. article, chimeric retinoid receptors involved in this assay include a ligand binding domain which recognizes and binds specific agonist molecules, such as retinoic acid and analogs. […]

[2] = tested on: chimeric RXRα receptor protein; test: Cationic Liposome Mediated Transfection Assay, RXRα; format: cell-based
Method: as §1, §2
Thus, in accordance with the test procedure, DNA plasmid which codes for one of the chimeric RARα, RARβ, RARγ, or RXRα receptor proteins is transfected into cultures of HeLa cells. It is for this purpose that HeLa cells are grown in a medium during the first day of the assay detailed below as the "Cationic Liposome Mediated Transfection Assay". In the transfection procedure, which is performed during the second day of the transfection assay, the DNA plasmid coding for the CAT enzyme is also added to each cell culture, in addition to the respective chimeric RARα, or RARβ etc. coding plasmid. As is known and will be readily understood by those skilled in the art, especially in view of the above-cited M. Pfahl et al. article, chimeric retinoid receptors involved in this assay include a ligand binding domain which recognizes and binds specific agonist molecules, such as retinoic acid and analogs. These chimeric protein receptors (which were constructed in accordance with the teachings of the M. Pfahl. et al, article) also contain a a DNA binding domain, which is capable of binding to the "estrogen response element" (a DNA fragment) attached to the DNA plasmid coding for the CAT enzyme. […]

[3] = tested on: RAR and RXR receptor sites; test: RAR versus RXR agonist specificity (in words); format: cell-based; settings: result in words
Method: The data obtained in the assay are evaluated and expressed as follows. For each test compound and for each subspecies of the RAR receptors a graph (or the mathematical equivalent of a graph) is prepared where the "counts per minute" (cpm) obtained in the scintillation counter measurements are plotted (on the y axis) against the concentration of the test compound. A similar graph (or mathematical equivalent) is prepared for retinoic acid. […] This is illustrated in the graphs of FIG. 1 and FIG. 3.
This reference compound is a known agonist of the RXRα receptor site.

HL-60 cdm-1 cells [4] = test: Assay 1: HL-60 cdm-1 cell count and microscopy after 72 hours; format: cell-based, human; settings: 1 uM; for cell counts: control 5.1 × 10^+5 / ml; for inspection of microscope slides: versus control
Description: Sedimented cells were air dried, fixed in absolute methanol, stained with a Diff-quick reagent kit, mounted in Permount and visualized by brightfield light microscopy.

HL-60 cdm-1 cells [5] = test: Assay 3: morphology of HL-60 cdm-1 cells at 4 hours, 48 hours, 6 days; format: cell-based, human; settings: 3 μl of 1 mM stock in 3 ml
Method: HL-60 cdm-1 cells were plated in a 6-well tissue culture plate (Falcon) in 3 ml of media (RPMI-1640 containing bovine insulin 5 mg/L, human transferrin 5 mg/L and Na Selenite 5 μg/L) at a density of 1×10^5 cells/ml. Duplicate wells received either ethanol (3 μl) or 3 μl of a stock solution of AGN 191701 (Compound 1, 1 mM in ethanol). The cells were cultured in a humidified incubator (5% CO2) at 37° C. in the dark for either 4 hours, 48 hours or 6 days. At the indicated times an aliquot of the cells (50 μl) was sedimented onto a microscope slide using a cytospin centrifuge. Sedimented cells were air dried, fixed in absolute methanol, stained with a Diffquick reagent kit, mounted in permount and visualized by brightfield light microscopy.

[6] = tested on: chimeric RARβ receptor protein; test: Cationic Liposome Mediated Transfection Assay, RARβ; format: cell-based; settings: Table 1; 50% of maximum CAT activity of all-trans retinoic acid; HeLa cells
Method: as §1, §2, §3

HL-60 cdm-1 cells [7] = test: Assay 2: DNA fragmentation (laddering) in HL-60 cdm-1 cells; format: cell-based, human; settings: 1 μM, 48 hours; 1% agarose gel
Method: HL-60 cdm-1 cells were placed in a T-25 tissue culture flask in 8 ml of media (RPMI-1640 containing bovine insulin 5 mg/L, human transferin 5 mg/L and Na Selenite 5 μg/L) at a density of 2×10^5 cells/ml. AGN 191701 (Compound 1) was added to a final concentration of 1 μM (8 μl of a 1 mM stock solution) and the cells were cultured in a humidified incubator (5% CO2) at 37° C. in the dark for 48 hours. The media and cells were removed from the flask, the cells were pelleted (1100 rpm/7 min Beckman desk top centrifuge), the pellet was washed once with phosphate buffered saline (PBS) and then the pelleted cells were lysed by the addition of 200 μl of a solution containing 20 mM Tris-HCl pH 7.4, 0.4 mM EDTA, 0.4% Triton X-100. The lysate was centrifuged for 5 minutes in a microfuge (14,000 rpm) and the supernatant adjusted to a final concentration of 0.5M NaCl and 50% isopropanol. The solution was allowed to precipitate overnight at -20° C. and the precipitate that formed was pelleted in a microfuge (10 min, 14,000 rpm). The pellet was washed once in 70% ethanol, it was resuspended in 50 μl Tris EDTA (10 mM Tris HCl ph 7.4, 0.4 mM EDTA) and mixed with gel loading buffer. […] DNA was detected by ethidium bromide staining followed by visualization and photography under a UV lamp.

[8] = tested on: chimeric RARα receptor protein; test: Cationic Liposome Mediated Transfection Assay, RARα; format: cell-based; settings: Table 1; 50% of maximum CAT activity of all-trans retinoic acid; HeLa cells
Method: as §1
In connection with this assay it is known that retinoic acid receptors arena member of the steroid/thyroid receptor super family and that they contain domains which are interchangeable within individual receptors. Thus, plasmids for chimeric retinoid receptors containing estrogen DNA binding domain and estrogen response element chloramphenicol acetyl-transferase enzyme are constructed and are grown in specific cultured bacteria. […]
as §3

[9] = tested on: human myeloid leukemia (HL-60 cdm1-1) cells; test: Induction of apoptotic cell death in HL-60 cdm-1 cells (general statement); format: cell-based; settings: compared with ethanol control
Method: In the assay, the human myeloid leukemia (HL-60 cdm1-1) cells are grown in cultures, and an RXR agonist compound, such as Compound 1 (AGN 191701) or Compound 3 (AGN 191659), is added to the culture.

[10] = Table 1; 50% of maximum CAT activity of AGN 191440; HeLa cells; read-out: EC50 RXRα

SMILES	EC50 [1] [nM]	EC50 [2, 10] [nM]	RAR / RXR agonist specificity [3]	cell counts (HL-60 cdm-1 cells [4]) [mL⁻¹]	inspection of microscope slides (HL-60 cdm-1 cells [4])	cell morphology at 4 hours (HL-60 cdm-1 cells [5]; 4 hours)	cell morphology at 48 hours (HL-60 cdm-1 cells [5]; 48 hours)	cell morphology after 6 days (HL-60 cdm-1 cells [5]; 6 days)	EC50 [6] [nM]	DNA fragmentation (laddering) (HL-60 cdm-1 cells [7])	EC50 [8] [nM]	EC50 ([2]; read-out: EC50 RXRα; Table 1; 50% of maximum CAT activity of AGN 191440; HeLa cells) [nM]	apoptotic cell death [9]	activity at RXR receptor sites [3]
C/C(=C\c1cc(C(=O)O)cs1)c1cc2c(cc1C)C(C)(C)CCC2(C)C [Compound 1, 2-[(E)-2-(5,6,7,8-tetrahydro-3,5,5,8,8-pentamethylnaphthalen-2-yl)propen-1-yl]thiophene-4-carboxylic acid]	1070	67	RXR specific agonist	70000	extensive cell death, almost all cells died	nuclear pyknosis and nuclear as well as cytoplasmic hyperchromicity with the formation of cytoplasmic extensions (large blobs)	extensive cell death with numerous hyperchromatic nuclear fragments either free in the media or contained with shrunken cell remnants	the same hyperchromatic nuclear remnants are detected but in addition there are scattered multinucleated syncitial cells	3350	pattern of DNA fragmentation				
C/C(=C\c1ccc(C(=O)O)cc1)c1cc2c(cc1C)C(C)(C)CCC2(C)C [Compound 2, reference compound]	364	448							101		3160			
C/C(=C\c1ccc(C(=O)O)s1)c1cc2c(cc1C)C(C)(C)CCC2(C)C [Compound 3, 2-[(E)-2-(5,6,7,8-tetrahydro-3,5,5,8-pentamethylnaphthalen-2-yl)propen-1-yl]-5-thiophenecarboxylic acid]	153	11.2	pan-agonist						23		> 1000			
C/C(=C\c1ccc(C(=O)O)cc1)c1ccc2c(c1)C(C)(C)CCC2(C)C [Compound 4, reference compound]			specific RAR agonist	460000	no difference between the control							> 10000	not active and not	not active at RXR receptor sites
